In patent US20040110844A1, “Anti-tumor pharmaceutical composition comprising N-vanillyl fatty acid amide” (KUREHA CHEMICAL INDUSTRY COMPANY, Limited, priority 2002, published 2004):

Experiments:
B16F10 melanoma cell [1] = assay: Phase contrast microscope observation of treated melanoma cells; type: cell-based, mouse; conditions: Dohevanil 50 μM compared with capsaicin 300 μM
Description: The observation of cytomorphology using the light microscope was carried out by counting with TMS (NIKON Corporation) and photographing, after plating the cells on a multiplate, and culturing it for a given time.
The shape and appearance of the melanoma cells treated in the presence of capsaicin in the concentration of 300 μM or Dohevanil in the concentration of 50 μM was observed using a phase contrast microscope.

B16F10 melanoma cell [2] = assay: Growth of B16F10 melanoma cells, number of cells counted with trypan blue and hemocytometer; type: cell-based, mouse; conditions: for cells in culture relative to the control culture: 50 μM; for cells in culture relative to the control culture / cells in culture relative to the control culture (survival ratio): cultured for 48 hours, B16F10; for cells in culture relative to the control culture (survival ratio): 100 μM; for action on the growth of melanoma cells (in words): 10-300 μM capsaicin, 10-100 μM Dohevanil, 48 hours, versus control
Description: B16F10 melanoma cell used for the comparison was a malignant melanoma cell derived from a mouse. The melanoma cells were cultured under 5% CO2 condition at 37 degrees Celsius in DMEM culture medium (pH7.2) including 10% of bovine fetus serum and penicillin/streptomycin solution. After the cells reached from 70% to 80% confluent, the cells were treated with trypsin-EDTA to release from the wall of culture device and were subjected to passage culture.
The number of cells were measured by the process comprising suspending the cells collected, sufficiently mixing the suspension with a trypan blue stain solution in the same volume of the suspension, watching the suspension using a phase contrast microscope and measuring the number of cells with a hemocytometer (Burker-Turk hemocytometer, Nippon Rinsho Kikai Kogyo Ltd.)
In order to examine the action of capsaicin to the growth of melanoma cells, the number of the cells were measured after 10 μM, 30 μM, 50 μM, 100 μM, or 300 μM of capsaicin was added to the MDEM media in which the melanoma cells exist and then the cells were cultured for 48 hours. […] In order to examine the action of Dohevanil to the growth of melanoma cells, the number of the cells were measured in the same manner as conducted for capsaicin except that capsaicin was replaced with Dohevanil. The melanoma cells were cultured in 10 μM, 30 μM, 50 μM, or 100 μM of Dohevanil.

caspase 3 activity [3] = assay: Measurement of caspase 3 activity (Example 6); type: cell-based
B16F10 melanoma cell [4] = assay: Hoechst 33342 fluorescence microscopy for apoptosis in melanoma cells; type: cell-based, mouse; conditions: Hoechst33342, each concentration, versus control
Description: The observation using the fluorescence microscope was carried out by the process comprising washing with PBS (−) a suspension of B16F10 cells treated with an agent for a given time (1×10^6 cells/ml), fixing the cells with 4% paraformaldehyde overnight, washing the cell fixed solution with PBS(−), suspending the cells in 20 μl of PBS (−), mixing 2 μl of fluorescence indicator (Hoechst 33342 (1 mM)) with each 5 μl of the cell suspension, placing a cover glass on the mixture, watching it using the fluorescence microscope (U region) and photographing.
The shape of the cells was observed using Hoechst33342 (dye) which specifically combined with the chromosome by fluorescence microscope to find out whether or not the cell death by capsaicin or Dohevanil was due to the apoptosis. As a result, the aggregation of chromatins and the disorder of nuclear shape, which are characteristics of the cell death by apoptosis, were observed by comparison with the control in each concentration of capsaicin or Dohevanil.

caspase 3 activity [5] = assay: Measurement of caspase 3 activity (Example 7, U937); type: cell-based, human
Description: In particular, when the concentration is 100 μM, although the survival ratio of the cells with capsaicin is about 50%, that with Dohevanil is zero (0) %. Accordingly, it is apparent as compared with capsaicin that Dohevanil is very low in the degree of hotness and stimulus, and coincidentally has a higher anti-leukemic cell effects.

NIH/3T3 cells = assay: NIH/3T3 normal cell growth by WST-1 method and LDH active release; type: cell-based; conditions: concentration 30 μM or less
Description: (§1) In order to make a comparison between the anti-tumor effects of capsaicin and Dohevanil, the following experimentation was carried out using HeLa cells derived from human uterocervical cancer as a tomor cell and NIH/3T3 cells as a normal cell. These cells used in the experimentation were cultured in RPMI-1640 medium (pH7.2) with 5% bovine fetal serum under the culture conditions being maintained in 5% CO2 and at 37 degrees Celsius. capsaicin or Dohevanil was added to each of the cell suspensions in the concentration of 10 μM, 30 μM, 50 μM, or 100 μM and then the cells were cultured. In this comparative example, the capability of cell growth was measured by WST-1 method and LDH active release into the supernatant as an indicator.
(§2) In this connection, the term “WST-1 method” used in the example means a method comprising reducing a formazan by using a reductase activity of mitochondria and determining an absorption of the coloring. The absorption may be used as an indicator of the cell growth because the reductase activity of mitochondria is lost if the cells die. The term “LDH active release” as used herein means that LDH (lactate dehydrogenase) is released due to a destruction of cell membrane accompanied with a cell death, and the measured value of the active release can be used as an indicator of the cell death.

[6] = system: human acute leukemia cell U937; assay: U937 cell growth by cell differential staining with trypan blue; type: cell-based; conditions: for survival ratio of the cells: 100 μM, U937 cells; for action on the growth of U937 cells (in words): 10, 30, 50, 100 μM
Description: In order to make a comparison between the anti-leukemic cell effects of capsaicin and Dohevanil, the following experimentation was carried out using a human acute leukemia cell U937. The U937 cells were cultured in RPMI-1640 medium (pH7.2) with 5% bovine fetal serum under the culture conditions being maintained in 5% CO2 and at 37 degrees Celsius. capsaicin or Dohevanil was added to each of the cell suspensions in the concentration of 10 μM, 30 μM, 50 μM,or 100 μM and then the cells were cultured. In this comparative example, the capability of cell growth was evaluated using the measured value as an indicator obtained by a method for the cell differential staining with trypan blue.
The method for the cell differential staining with trypan blue is a method utilizing the characters that trypan blue combines with a protein to color in blue and that trypan blue enters into the dead cells due to the loss of a membrane function to prevent from its invasion. Since the dead cells are colored in blue with trypan blue, the survival ratio of the cells can be determined by counting the stained cells using a microscope.

HeLa cells = assay: HeLa cell growth by WST-1 method and LDH active release; type: cell-based, human; conditions: for survival ratio of the cells: 100 μM, HeLa cells; for action on the growth of HeLa cells (in words): 10, 30, 50, 100 μM
Description: as §1, §2

[7] = system: Hela cell (uterocervica cancer cell); conditions: low concentration; cited from earlier work
[8] = system: normal cells of human mammary gland epithelium and of liver and kidney of the rat; conditions: cited from earlier work
[9] = system: HL-60 cell (acute promyelocytic leukemia cell); conditions: low concentration; cited from earlier work

| SMILES | melanoma cells adhered to the wall of culture vessel (in words) (B16F10 melanoma cell [1]) | cells in culture relative to the control culture (B16F10 melanoma cell [2]) | cells in culture relative to the control culture (survival ratio) (B16F10 melanoma cell [2]) | action on the growth of melanoma cells (in words) (B16F10 melanoma cell [2]) | apoptosis according to caspase 3 activity (caspase 3 activity [3]) | induction of apoptosis (aggregation of chromatins, disorder of nuclear shape) (B16F10 melanoma cell [4]) | apoptosis according to caspase 3 activity (caspase 3 activity [5]) | action to NIH/3T3 normal cells (in words) (NIH/3T3 cells) | survival ratio of the cells [6] | action on the growth of U937 cells (in words) [6] | survival ratio of the cells (HeLa cells) | action on the growth of HeLa cells (in words) (HeLa cells) | proliferative inhibitory effect (in words) [7] | proliferative inhibitory effect to normal cells (in words) [8] | proliferative inhibitory effect (in words) [9] |
| --- | --- | --- | --- | --- | --- | --- | --- | --- | --- | --- | --- | --- | --- | --- | --- |
| CC/C=C\C/C=C\C/C=C\C/C=C\C/C=C\C/C=C\CCC(=O)NCc1ccc(O)c(OC)c1 [Dohevanil, N-vanillyl-4,7,10,13,16,19-Docosahexaenamide] | extremely reduced | about 10% | 0% | suppressed the growth of the cells depending on the concentration | induce the apoptosis to cause the cell death | strongly induces the apoptosis | induce the apoptosis to cause the cell death | hardly act | 0% | suppress the growth of U937 cells depending on their concentrations | 0% | suppress the growth of HeLa cells depending on their concentrations | – | – | – |
| COc1cc(CNC(=O)CCCCC=CC(C)C)ccc1O [capsaicin, 8-methyl-N-vanillyl-6-nonenamide] | – | about 60% | about 50% | suppressed the growth of the cells depending on the concentration | induce the apoptosis to cause the cell death | induce the apoptosis to melanoma cells | induce the apoptosis to cause the cell death | hardly act | about 50% | suppress the growth of U937 cells depending on their concentrations | about 50% | suppress the growth of HeLa cells depending on their concentrations | proliferative inhibitory effect in a low concentration | without any proliferative inhibitory effects | proliferative inhibitory effect in a low concentration |
